These molecules were tested against T1, human neutrophil elastase (Homo sapiens, UniProt P08246) (assay: Inhibitory action 2 against human neutrophil elastase (Test Example 2; fluorogenic substrate MeOSuc-AAPV-AMC, buffer with 400 mM NaCl, 0.2 mg/ml BSA)). Conditions: 37° C., read-out: IC50 value (compound concentration required for 50% inhibition of human neutrophil elastase).
T1 construct: purchased Elastin Products Company
T1 sequence (P08246 30-267): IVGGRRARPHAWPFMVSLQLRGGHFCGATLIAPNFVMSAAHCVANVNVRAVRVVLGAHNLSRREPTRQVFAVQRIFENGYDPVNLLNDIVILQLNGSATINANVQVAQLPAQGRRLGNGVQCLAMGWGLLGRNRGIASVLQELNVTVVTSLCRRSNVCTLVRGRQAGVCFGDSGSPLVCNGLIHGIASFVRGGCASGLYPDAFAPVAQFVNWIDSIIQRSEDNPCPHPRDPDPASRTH
Format: biochemical
Procedure: Assay buffer (0.4 unit/ml HNE (human neutrophil elastase, available from Elastin Products Company), 200 mM HEPES [N-(2-hydroxyethyl)piperazine-N′-(2-ethanesulfonic acid)], pH 7.5, 400 mM NaCl, 0.2 mg/ml BSA (bovine serum albumin)) 100 μl, water for injection 20 μl and 1% DMSO (dimethyl sulfoxide) solution of the present compound 20 μl were mixed in a 96 well plate and the mixed solutions were pre-incubated at 37° C. for five minutes. After pre-incubation, MeOSuc-AAPV-AMC (methoxysuccinyl-alanyl-alanyl-prolyl-valyl-aminomethyl cumaride (available from Sigma Aldrich Corp.) solution as fluorogenic substrate (which was dissolved in 10% DMSO solution so as to adjust to 0.5 mM) 40 μl was added to the above-prepared mixed solution so as to initiate the reaction, and the mixture was incubated at 37° C. for five minutes. The fluorescence intensity of AMC was measured at an excitation wavelength of 380 nm and a fluorescence wavelength of 460 nm and the inhibition ratio was determined.

With `COC(=O)NS(=O)(=O)c1cnn(-c2ccc(C#N)cc2)c1-c1c(C)n(-c2cccc(C(F)(F)F)c2)c(=O)n(C)c1=O` [Example 252] as the molecule, how does the IC50 read?
The IC50 was 20.6 nM.

With `CCn1c(=O)c(-c2c(C3(N)CCC3)cnn2-c2ccc(C#N)cc2)c(C)n(-c2cccc(C(F)(F)F)c2)c1=O` [Example 298] as the molecule, how does the IC50 read?
The IC50 was 42.7 nM.

How did the IC50 turn out when `Cc1c(-c2c(S(=O)(=O)O)cnn2-c2ccc(C#N)cc2)c(=O)n(C)c(=O)n1-c1cccc(C(F)(F)F)c1` [Example 191, 1-(4-cyanophenyl)-5-(3,6-dimethyl-2,4-dioxo-1-(3-trifluoromethylphenyl)-1,2,3,4-tetrahydropyrimidin-5-yl)-1H-pyrazole-4-sulfonic acid] was run?
Its IC50 is 23.1 nM.

Which IC50 does the source give for `Cc1c(-c2ccnn2-c2ccc(C#N)cc2F)c(=O)n(C)c(=O)n1-c1cccc(C(F)(F)F)c1` [Example 326] here?
Its IC50 is 24.3 nM.

For `CCn1c(=O)c(-c2c(C(=O)N3CC(O)C3)cnn2-c2ccc(C#N)cc2)c(C)n(-c2cccc(C(F)(F)F)c2)c1=O` [Example 156], which IC50 is on record?
Its IC50 is 10 nM.

With `Cc1c(-c2c(S(N)(=O)=O)cnn2-c2ccc(C#N)cc2)c(=O)n(C(C)C)c(=O)n1-c1cccc(C(F)(F)F)c1` [Example 206] as the molecule, how does the IC50 read?
Its IC50 is 9.3 nM.

For `Cc1c(-c2ccnn2-c2ccc(C#N)cc2)c(=O)n(C2CCN(C(=O)C(C)(C)N)CC2)c(=O)n1-c1cccc(C(F)(F)F)c1` [Example 357], which IC50 is on record?
Its IC50 is 10.2 nM.

`CNS(=O)(=O)c1cnn(-c2ccc(C#N)cc2)c1-c1c(C)n(-c2cccc(C(F)(F)F)c2)c(=O)n(C)c1=O` [Example 218] was tested. Which IC50 did it give?
The IC50 was 14.7 nM.

With `Cc1c(-c2c(S(C)(=O)=O)cnn2-c2ccc(C#N)cc2)c(=O)n(C)c(=O)n1-c1cccc(C(F)(F)F)c1` (single isomer, unassigned) [Example 267] as the molecule, how does the IC50 read?
The IC50 was 11.6 nM.

With `Cc1c(-c2ccnn2-c2ccc(C#N)cc2)c(=O)n(C(C)C)c(=O)n1-c1cccc(C(F)(F)F)c1` [Example 42, 4-(5-(3-isopropyl-6-methyl-2,4-dioxo-1-(3-(trifluoromethyl)phenyl)-1,2,3,4-tetrahydropyrimidin-5-yl)-1H-pyrazol-1-yl)benzonitrile] as the molecule, how does the IC50 read?
Its IC50 is 3.5 nM.

`Cc1c(-c2c(S(=O)(=O)N3CCOCC3)cnn2-c2ccc(C#N)cc2)c(=O)n(C)c(=O)n1-c1cccc(C(F)(F)F)c1` [Example 221] was tested. Which IC50 did it give?
The IC50 was 19.8 nM.

Which IC50 does the source give for `Cc1c(-c2c(Cl)cnn2-c2ccc(C#N)cc2)c(=O)n(C(C)C(N)=O)c(=O)n1-c1cccc(C(F)(F)F)c1` (stereo not shown) [Example 361] here?
The IC50 was 6.3 nM.

`Cc1c(-c2c(S(=O)(=O)NCCO)cnn2-c2ccc(C#N)cc2)c(=O)n(C)c(=O)n1-c1cccc(C(F)(F)F)c1` [Example 227] was tested. Which IC50 did it give?
The IC50 was 7.8 nM.

With `N#Cc1ccc(-n2nccc2-c2cn(-c3cccc(C(F)(F)F)c3)c(=O)n([C@@H]3CNC(=O)C3)c2=O)cc1` [Example 90] as the molecule, how does the IC50 read?
The IC50 was 353 nM.

How did the IC50 turn out when `Cc1c(-c2c(C#N)cnn2-c2ccc(C#N)cc2)c(=O)n([C@@H]2CCN(C)C2)c(=O)n1-c1cccc(C(F)(F)F)c1` [Example 367] was run?
Its IC50 is 14 nM.

For `Cc1c(-c2c(S(N)(=O)=O)cnn2-c2ccc(C#N)cc2)c(=O)n(C)c(=O)n1-c1cccc(C(F)(F)F)c1` [Example 211, (+)-1-(4-cyanophenyl)-5-(3,6-dimethyl-2,4-dioxo-1-(3-trifluoromethylphenyl)-1,2,3,4-tetrahydropyrimidin-5-yl)-1H-pyrazole-4-sulfonamide 0.5 IPA solvates], which IC50 is on record?
Its IC50 is 8.8 nM.

`Cc1c(-c2ccnn2-c2ccc(C#N)cc2)c(=O)n(C(C)CNS(C)(=O)=O)c(=O)n1-c1cccc(C(F)(F)F)c1` (stereo not shown) [Example 393] was tested. Which IC50 did it give?
Its IC50 is 26.3 nM.

`Cc1c(-c2ccnn2-c2ccc(C#N)cc2)c(=O)n(C(C)CN2CC(O)C2)c(=O)n1-c1cccc(C(F)(F)F)c1` (stereo not shown) [Example 390] was tested. Which IC50 did it give?
The IC50 was 10.4 nM.

How did the IC50 turn out when `Cc1c(-c2ccnn2-c2ccc(C#N)cc2)c(=O)n([C@H](C)CS(C)(=O)=O)c(=O)n1-c1cccc(C(F)(F)F)c1` [Example 375] was run?
Its IC50 is 12.3 nM.
